# Experimental data from article PMC8286840, “Identifying SARS-CoV-2 antiviral compounds by screening for small molecule inhibitors of Nsp3 papain-like protease” (Biochemical Journal, 2021).
# Counter-ions that a name gives are not always drawn. Like-named read-outs stand apart in the source and are kept apart here.
# Experiments:
# [1] = target: T1, SARS-CoV-2 PLpro (nsp3 1564–1878) (Severe acute respiratory syndrome coronavirus 2, UniProt P0DTD1); experiment: biochemical; parameters: FRET-quenched peptide (Pro3) cleavage by PLpro, 10 min pre-incubation, slope over 20 min, normalised to no-compound control; conditions: high concentration screen, read-out: % of control remaining
# [2] = target: T1, SARS-CoV-2 PLpro (nsp3 1564–1878); experiment: biochemical; parameters: FRET-quenched peptide (Pro3) cleavage by PLpro, 10 min pre-incubation, slope over 20 min, normalised to no-compound control; conditions: low concentration screen, read-out: % of control remaining
smiles,measurement,setting,value
O=C(Nc1ccccc1)c1cc([N+](=O)[O-])ccc1Cl [GW9662],remaining activity at 3.75 µM,[1]; Well no.=1122,89.4%
same,remaining activity at 1.25 µM,[2]; Well no.=1122,88.3%
Cn1cc(/C=C2\C(=O)Nc3cccnc32)c2ccccc21 [GW441756],remaining activity at 3.75 µM,[1]; Well no.=2791,103%
same,remaining activity at 1.25 µM,[2]; Well no.=2791,103%
O=C(NC1CCOCC1)c1ccc(-c2cc(-c3c[nH]nc3-c3ccccn3)ccn2)cc1 [GW788388],remaining activity at 3.75 µM,[1]; Well no.=5067,106%
same,remaining activity at 1.25 µM,[2]; Well no.=5067,102%
O=C(NCC1CCOCC1)c1cnc(Nc2ccc(Cl)cc2Cl)nc1C(F)(F)F [GW842166X],remaining activity at 3.75 µM,[1]; Well no.=5085,100%
same,remaining activity at 1.25 µM,[2]; Well no.=5085,97.9%
"O=C1Nc2ccc(I)cc2/C1=C/c1cc(Br)c(O)c(Br)c1 [GW 5074 - 3-(3,5-Dibromo-4-hydroxy-benzylidene)-5-iodo-1,3-dihydro-indol-2-one]",remaining activity at 3.75 µM,[1]; Well no.=2392,101%
same,remaining activity at 1.25 µM,[2]; Well no.=2392,97.9%
"Cn1cc(/C=C2\C(=O)Nc3cccnc32)c2ccccc21 [GW 441756 - 1,3-Dihydro-3-[(1-methyl-1H-indol-3-yl)methylene]-2H-pyrrolo[3,2-b]pyridin-2-one]",remaining activity at 3.75 µM,[1]; Well no.=2488,100%
same,remaining activity at 1.25 µM,[2]; Well no.=2488,102%
CS(=O)(=O)CCNCc1nc(-c2ccc3ncnc(Nc4ccc(OCc5cccc(F)c5)c(Cl)c4)c3c2)cs1 [GW 583340 dihydrochloride - N-[3-Chloro-4-[(3-fluorophenyl)methoxy]phenyl]-6-[2-[[[2-(methylsulfonyl)ethyl]amino]methyl]-4-thiazolyl]-4-quinazolinamine dihydrochloride],remaining activity at 3.75 µM,[1]; Well no.=2490,94.9%
same,remaining activity at 1.25 µM,[2]; Well no.=2490,94.4%
NC(=O)c1ccc(CNC(=O)NC[C@H]2CN(Cc3ccc(Cl)c(Cl)c3)CCO2)cc1 [GW 766994],remaining activity at 3.75 µM,[1]; Well no.=8595,103%
same,remaining activity at 1.25 µM,[2]; Well no.=8595,104%
"COc1cc2ncn(-c3cc(OCc4ccccc4C(F)(F)F)c(C(N)=O)s3)c2cc1OC [GW 843682X - 5-(5,6-Dimethoxy-1H-benzimidazol-1-yl)-3-[[2-(trifluoromethyl)phenyl]methoxy]-2-thiophenecarboxamide]",remaining activity at 3.75 µM,[1]; Well no.=2668,96.9%
same,remaining activity at 1.25 µM,[2]; Well no.=2668,92.6%
CC1=NN=C(c2ccc(N)cc2)c2cc3c(cc2C1)OCO3 [GYKI 52466 hydrochloride],remaining activity at 3.75 µM,[1]; Well no.=748,92.5%
same,remaining activity at 1.25 µM,[2]; Well no.=748,92.9%
CC1Cc2cc3c(cc2C(c2ccc(N)cc2)=NN1)OCO3 (centres unmarked) [GYKI 52895],remaining activity at 3.75 µM,[1]; Well no.=414,95.8%
same,remaining activity at 1.25 µM,[2]; Well no.=414,95.2%
N[C@@H]1C=CC=C(C(=O)O)C1 [Gabaculine hydrochloride],remaining activity at 3.75 µM,[1]; Well no.=13,105%
same,remaining activity at 1.25 µM,[2]; Well no.=13,105%
NCC1(CC(=O)O)CCCCC1 [Gabapentin],remaining activity at 3.75 µM,[1]; Well no.=510,105%
same,remaining activity at 3.75 µM,[1]; Well no.=1755,100%
same,remaining activity at 1.25 µM,[2]; Well no.=510,104%
same,remaining activity at 1.25 µM,[2]; Well no.=1755,98.1%
CCOC(=O)c1ccc(OC(=O)CCCCCNC(=N)N)cc1 [Gabexate mesylate],remaining activity at 3.75 µM,[1]; Well no.=5092,102%
same,remaining activity at 1.25 µM,[2]; Well no.=5092,97.5%
COc1ccc2c3c1O[C@H]1C[C@@H](O)C=C[C@@]31CCN(C)C2 [Galanthamine],remaining activity at 3.75 µM,[1]; Well no.=1707,101%
same,remaining activity at 1.25 µM,[2]; Well no.=1707,105%
C[C@]12CC[C@H](O)CC1=CC[C@@H]1[C@@H]2CC[C@]2(C)C(n3cnc4ccccc43)=CC[C@@H]12 [Galeterone (TOK-001)],remaining activity at 3.75 µM,[1]; Well no.=5127,99.7%
same,remaining activity at 1.25 µM,[2]; Well no.=5127,97.5%
CC[N+](CC)(CC)CCOc1cccc(OCC[N+](CC)(CC)CC)c1OCC[N+](CC)(CC)CC [Gallamine triethiodide],remaining activity at 3.75 µM,[1]; Well no.=717,87.8%
same,remaining activity at 3.75 µM,[1]; Well no.=6753,103%
same,remaining activity at 1.25 µM,[2]; Well no.=717,91.1%
same,remaining activity at 1.25 µM,[2]; Well no.=6753,105%
CC(C)=CCC[C@]1(C)C=Cc2c(O)c3c(c(CC=C(C)C)c2O1)O[C@]12C(=C[C@@H]4C[C@H]1C(C)(C)O[C@@]2(C/C=C(/C)C(=O)O)C4=O)C3=O [Gambogic Acid],remaining activity at 3.75 µM,[1]; Well no.=3723,97.8%
same,remaining activity at 3.75 µM,[1]; Well no.=6926,91.9%
same,remaining activity at 1.25 µM,[2]; Well no.=3723,94.4%
same,remaining activity at 1.25 µM,[2]; Well no.=6926,96.6%
CC(=O)[C@H]1CC[C@H]2[C@@H]3CC[C@H]4C[C@](C)(O)CC[C@]4(C)[C@H]3CC[C@]12C [Ganaxolone],remaining activity at 3.75 µM,[1]; Well no.=5901,94%
same,remaining activity at 1.25 µM,[2]; Well no.=5901,96.3%
Nc1nc2c(ncn2COC(CO)CO)c(=O)[nH]1 [Ganciclovir],remaining activity at 3.75 µM,[1]; Well no.=667,97.3%
same,remaining activity at 3.75 µM,[1]; Well no.=2168,99.3%
same,remaining activity at 3.75 µM,[1]; Well no.=8062,97.7%
same,remaining activity at 1.25 µM,[2]; Well no.=667,99.1%
same,remaining activity at 1.25 µM,[2]; Well no.=2168,97.3%
same,remaining activity at 1.25 µM,[2]; Well no.=8062,97.2%
CC(C)c1cc(-c2n[nH]c(=O)n2-c2ccc3c(ccn3C)c2)c(O)cc1O [Ganetespib (STA-9090)],remaining activity at 3.75 µM,[1]; Well no.=9028,86.1%
same,remaining activity at 1.25 µM,[2]; Well no.=9028,85.9%
CCNCc1nc2c(N)nc3ccccc3c2n1CC(C)(C)O [Gardiquimod trifluoroacetate],remaining activity at 3.75 µM,[1]; Well no.=8131,103%
same,remaining activity at 1.25 µM,[2]; Well no.=8131,105%
COc1c(N2CCNC(C)C2)c(F)cc2c(=O)c(C(=O)O)cn(C3CC3)c12 (centres unmarked) [Gatifloxacin],remaining activity at 3.75 µM,[1]; Well no.=2170,104%
same,remaining activity at 1.25 µM,[2]; Well no.=2170,103%
COc1cc2ncnc(Nc3ccc(F)c(Cl)c3)c2cc1OCCCN1CCOCC1 [Gefitinib],remaining activity at 3.75 µM,[1]; Well no.=1579,102%
same,remaining activity at 3.75 µM,[1]; Well no.=2743,101%
same,remaining activity at 1.25 µM,[2]; Well no.=1579,102%
same,remaining activity at 1.25 µM,[2]; Well no.=2743,101%
COC1=C2C[C@@H](C)C[C@H](OC)[C@H](O)[C@@H](C)/C=C(\C)[C@H](OC(N)=O)[C@@H](OC)/C=C\C=C(/C)C(=O)NC(=CC1=O)C2=O [Geldanamycin],remaining activity at 3.75 µM,[1]; Well no.=5019,101%
same,remaining activity at 1.25 µM,[2]; Well no.=5019,98.5%
Nc1ccn([C@@H]2O[C@H](CO)[C@@H](O)C2(F)F)c(=O)n1 [Gemcitabine (hydrochloride)],remaining activity at 3.75 µM,[1]; Well no.=8056,100%
same,remaining activity at 1.25 µM,[2]; Well no.=8056,96.9%
Nc1ccn([C@@H]2O[C@H](CO)[C@@H](O)C2(F)F)c(=O)n1 [Gemcitabine HCl (Gemzar)],remaining activity at 3.75 µM,[1]; Well no.=5059,107%
same,remaining activity at 1.25 µM,[2]; Well no.=5059,104%
Nc1ccn([C@@H]2O[C@H](CO)[C@@H](O)C2(F)F)c(=O)n1 [Gemcitabine],remaining activity at 3.75 µM,[1]; Well no.=1906,98.5%
same,remaining activity at 3.75 µM,[1]; Well no.=8054,95%
same,remaining activity at 1.25 µM,[2]; Well no.=1906,97.8%
same,remaining activity at 1.25 µM,[2]; Well no.=8054,92.7%
Cc1ccc(C)c(OCCCC(C)(C)C(=O)O)c1 [Gemfibrozil],remaining activity at 3.75 µM,[1]; Well no.=2174,98.7%
same,remaining activity at 1.25 µM,[2]; Well no.=2174,95.4%
COC(=O)C1=CO[C@@H](O)[C@@H]2C(CO)=CC[C@H]12 [Genipin],remaining activity at 3.75 µM,[1]; Well no.=5276,89.2%
same,remaining activity at 1.25 µM,[2]; Well no.=5276,95.9%
